Test results: patent US20250313560A1, “Novel bicyclic benzylamido pyridine derivatives as SOS1 inhibitors” (Boehringer Ingelheim International GmbH, priority 2024, published 2025)

Key:
[1] = test system: ERK phosphorylation in NCI-H358 SOS2 KO cells (KRAS G12C); assay: Erk phosphorylation assay; format: cell-based, human; conditions: Homo sapiens, NCI-H358, NCI-H358 SOS2 KO cells, EGF stimulated; average of at least two measurements; read-out: pERK IC50
Method in brief: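 NCI-H358 SOS2 KO cells (KRAS G12C) in DMEM/2% FBS were pretreated 50 min with compound, then stimulated with EGF (approx. 8 ng/mL) for 10-15 min. pERK1/2 (Thr202/Tyr204) measured in lysates by AlphaLISA SureFire; IC50 from variable-slope fit, averaged over at least two measurements.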

human hepatocytes = assay: Metabolic stability in human hepatocytes; conditions: 1 μM test compound, 50% human serum, percentage of liver blood flow
Procedure: The metabolic degradation of a test compound is performed with hepatocytes in suspension. After recovery from cryopreservation, human hepatocytes are diluted in Dulbecco's modified eagle medium (supplemented with 3.5 μg glucagon/500 mL, 2.5 mg insulin/500 mL, 3.75 mg hydrocortisone/500 mL, 50% human serum) to obtain a final cell density of 1.0×10^6 cells/mL. Following a preincubation in a cell culture incubator (37° C., 10% CO2), test compound dissolved in DMSO is mixed with the hepatocyte suspension, resulting in a final test compound concentration of 1 μM and a final DMSO concentration of 0.05%.
The cell suspension is incubated at 37° C. (cell culture incubator, horizontal shaker) and samples are removed from the incubation after 0, 0.5, 1, 2, 4 and 6 hours. Samples are quenched with acetonitrile (containing internal standard) and pelleted by centrifugation. The supernatant is transferred to a deep-well plate and prepared for analysis of decline of parent compound by HPLC-MS/MS.
The percentage of remaining test compound is calculated using the peak area ratio (test compound/internal standard) of each incubation time point relative to the time point 0 peak area ratio. The log-transformed data are plotted versus incubation time, and the absolute value of the slope obtained by linear regression analysis is used to estimate in vitro half-life (T1/2).
CL_[sequence]_IN VIVO[mL/min/kg]=(CL_[sequence][μL/min/10^6cells]×hepatocellularity[10^6cells/g liver]×liver factor[g/kg body weight])/1000
Hepatic in vivo blood clearance (CL) is predicted according to the well-stirred liver model considering an average liver blood flow (QH) of 20.7 mL/min/kg:
CL[mL/min/kg]=CL_[sequence]_IN VIVO[mL/min/kg]×hepatic blood flow[mL/min/kg]/(CL_[sequence]_IN VIVO[mL/min/kg]+hepatic blood flow[mL/min/kg])
Results are expressed as percentage of hepatic blood flow:
QH[%]=CL[mL/min/kg]/hepatic blood flow[mL/min/kg])

CYP3A4 = CYP3A4 (Homo sapiens (Human), UniProt P08684); assay: Mechanism-based inhibition of CYP3A4 assay (MBI 3A4); format: in vitro ADME; conditions: human, human liver microsomes, probe midazolam 15 μM (hydroxy-midazolam formation), midazolam substrate, hydroxy-midazolam formation after 30 min preincubation relative to 0 min, read-out: MBI inhibition % ctrl. [%] with MDZ
Method in brief: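 Human liver microsomes (0.2 mg/mL) were preincubated with compound at 0, 5 or 25 μM plus 1 mM NADPH for 0, 10 or 30 min, then diluted 1:10 and incubated 10 min with 15 μM midazolam. Hydroxy-midazolam was measured by LC/MS-MS; readout is formation after 30 min relative to 0 min preincubation (%).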

SOS1 and KRAS G12C = SOS1 and KRAS G12C (Homo sapiens (Human), UniProt Q07889); assay: KRAS::SOS1 AlphaScreen binding assay (KRAS G12C); conditions: average of at least two measurements
P450 3A4 = P450 3A4 (Homo sapiens (Human), UniProt P08684); assay: Cytochrome P450 isoenzyme inhibition assay (P450 3A4, midazolam); format: in vitro ADME; conditions: human liver microsomes, Midazolam as substrate; read-out: CYP3A4 inhibition IC50
Method in brief: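 Midazolam (5 μM) hydroxylation by human liver microsomes (0.1 mg/ml) in 0.1 M TRIS with 5 mM MgCl2, started with 1 mM NADPH. Five compound concentrations in duplicate, e.g. top 50 μM with 1:4 dilutions. Metabolite quantified by LC-MS/MS against internal standard; IC50 from inhibition relative to no-compound control.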

SOS1 and KRAS G12D = SOS1 and KRAS G12D (Homo sapiens (Human), UniProt Q07889); assay: KRAS::SOS1 AlphaScreen binding assay (KRAS G12D); conditions: average of at least two measurements
Sequence of SOS1 and KRAS G12D (Q07889 564-1049, stated change not applied): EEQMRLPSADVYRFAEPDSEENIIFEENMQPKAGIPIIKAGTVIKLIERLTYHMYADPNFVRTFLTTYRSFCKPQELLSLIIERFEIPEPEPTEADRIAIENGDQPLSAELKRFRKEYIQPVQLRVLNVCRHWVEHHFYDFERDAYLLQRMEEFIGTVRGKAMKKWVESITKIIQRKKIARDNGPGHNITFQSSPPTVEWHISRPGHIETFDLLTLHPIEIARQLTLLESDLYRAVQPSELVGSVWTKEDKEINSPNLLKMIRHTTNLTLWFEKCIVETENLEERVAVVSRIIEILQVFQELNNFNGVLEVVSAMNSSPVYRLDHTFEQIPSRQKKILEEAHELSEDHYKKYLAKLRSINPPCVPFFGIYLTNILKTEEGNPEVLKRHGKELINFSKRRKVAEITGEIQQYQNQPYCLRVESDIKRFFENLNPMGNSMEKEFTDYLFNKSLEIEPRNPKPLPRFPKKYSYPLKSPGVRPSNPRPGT

Sequence of SOS1 and KRAS G12C (Q07889 564-1049, stated change not applied): as above
Sequence of CYP3A4 (P08684 whole entry): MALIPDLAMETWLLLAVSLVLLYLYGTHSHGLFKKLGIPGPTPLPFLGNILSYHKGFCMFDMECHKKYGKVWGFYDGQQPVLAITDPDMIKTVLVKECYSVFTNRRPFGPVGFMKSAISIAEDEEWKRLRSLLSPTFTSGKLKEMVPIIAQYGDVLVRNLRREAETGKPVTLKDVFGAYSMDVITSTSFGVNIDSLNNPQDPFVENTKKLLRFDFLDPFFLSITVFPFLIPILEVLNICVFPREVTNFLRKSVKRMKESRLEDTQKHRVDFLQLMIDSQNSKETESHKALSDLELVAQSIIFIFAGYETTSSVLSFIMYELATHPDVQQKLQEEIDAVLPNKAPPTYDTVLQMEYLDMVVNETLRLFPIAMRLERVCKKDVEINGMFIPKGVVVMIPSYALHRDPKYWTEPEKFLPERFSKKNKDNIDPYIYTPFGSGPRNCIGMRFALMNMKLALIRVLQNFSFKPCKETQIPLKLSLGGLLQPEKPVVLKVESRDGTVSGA
Sequence of P450 3A4 (P08684 whole entry): as above

| Compound | IC50 [1] [µM] | Hepatic clearance - QH[%] in human hepatocytes (human hepatocytes) [%] | inhibition at 30 min (CYP3A4) [%] | IC50 (SOS1 and KRAS G12C) [nM] | IC50 (P450 3A4) [µM] | IC50 (SOS1 and KRAS G12D) [nM] |
| --- | --- | --- | --- | --- | --- | --- |
| C[C@@H](NC(=O)c1cc([C@H]2CC[C@H](N3CC[C@](C)(O)C3)CC2)c2ncnn2c1)c1cccc(C(F)F)c1F [Example E59] | 0.166 | 15 | 99 | 42 | > 50 | 41 |
| C[C@@H](NC(=O)c1cc([C@H]2CC[C@H](N3C[C@H](F)C[C@@H]3CO)CC2)c2ncnn2c1)c1cccc(C(F)F)c1F [Example E60] | 0.29 | 26 | 90 | 21 | > 50 | 20 |
| C[C@@H]1C[C@@H](O)CN1[C@H]1CC[C@H](c2cc(C(=O)N[C@H](C)c3cccc(C(F)F)c3F)cn3ncnc23)CC1 [Example E62] | 0.315 | 9 | 98 | 22 | > 50 | 15 |
| C[C@@H](NC(=O)c1cc(C2=CCC(N3CCC[C@H](O)C3)CC2)c2ncnn2c1)c1cccc(C(F)F)c1F (stereo partly drawn) [Example E63] | 0.089 | 23 | 94 | 31 | > 50 | 27 |
| C[C@@H](NC(=O)c1cc([C@]2(O)CC[C@@H](N3CC[C@@H](F)C3)CC2)c2ncnn2c1)c1cccc(C(F)F)c1F [Example E65] | 0.165 | 38 | 102 | 90 | > 50 | 93 |
| C[C@@H](NC(=O)c1cc([C@]2(O)CC[C@@H](N3CC[C@H](F)C3)CC2)c2ncnn2c1)c1cccc(C(F)F)c1F [Example E66] | 0.152 | 32 | 81 | 74 | > 50 | 79 |
| C[C@@H](NC(=O)c1cc([C@H]2CC[C@H](N3CCC[C@H](O)C3)CC2)c2ncnn2c1)c1cccc(C(F)(F)F)c1F [Example E67] | 0.046 | 10 | 95 | 33 | > 50 | 33 |
| C[C@@H](NC(=O)c1cc([C@H]2CC[C@H](N3CCC[C@@H](O)C3)CC2)c2ncnn2c1)c1cccc(C(F)(F)F)c1F [Example E68] | 0.116 | 12 | 91 | 36 | > 50 | 27 |
| C[C@@H](NC(=O)c1cc([C@H]2CC[C@H](N3CC[C@H](O)C3)CC2)c2ncnn2c1)c1cccc(C(F)(F)F)c1F [Example E69] | 0.218 | <4 | 85 | 28 | > 50 | 23 |
| C[C@@H](NC(=O)c1cc([C@]2(O)CC[C@@H](N3CC[C@H](F)C3)CC2)c2ncnn2c1)c1cccc(C(F)(F)F)c1F [Example E71] | 0.196 | 7 | 94 | 79 | > 50 | 79 |
| C[C@@H](NC(=O)c1cc(N2CCC(N3CCC[C@H]3CO)CC2)c2ncnn2c1)c1cccc(C(C)(F)F)c1F [Example E72] | 0.092 | 21 | 98 | 33 | > 50 | 32 |
| C[C@@H](NC(=O)c1cc(N2CCC(N3CC[C@@H](CO)C3)CC2)c2ncnn2c1)c1cccc(C(C)(F)F)c1F [Example E73] | 0.136 | 24 | 103 | 64 | > 50 | 64 |
| C[C@@H](NC(=O)c1cc(N2CCC3(CCCN3C)CC2)c2ncnn2c1)c1cccc(C(C)(F)F)c1F [Example E74] | 0.206 | 8 | 89 | 26 | > 50 | 21 |
| CO[C@@H]1CCN(C2CCN(c3cc(C(=O)N[C@H](C)c4cccc(C(F)(F)F)c4F)cn4cnnc34)CC2)C1 [Example E75] | 0.408 | 9 | 99 | 65 | > 50 | 60 |
| C[C@@H](NC(=O)c1cc(N2CCC3(CCCN3C)CC2)c2nncn2c1)c1cccc(C(F)(F)F)c1F [Example E77] | 0.202 | <4 | 88 | 27 | > 50 | 22 |
| Cc1nc2c(N3CCC4(CCCN4)CC3)cc(C(=O)N[C@H](C)c3cccc(C(F)(F)F)c3F)cn2n1 [Example E78] | 0.223 | 5 | 103 | 43 | > 50 | 41 |
| Cc1nnc2c(N3CCC4(CCCN4C)CC3)cc(C(=O)N[C@H](C)c3cccc(C(F)(F)F)c3F)cn12 [Example E79] | 0.106 | 8 | 90 | 20 | > 50 | 14 |
| Cc1c([C@@H](C)NC(=O)c2cc(N3CCC4(CCCN4C)CC3)c3nnc(C)n3c2)cccc1C(F)(F)F [Example E80] | 0.213 | <4 | 88 | 37 | > 50 | 27 |
| C[C@@H](NC(=O)c1cc([C@H]2CC[C@H](N3CCC[C@H](O)C3)CC2)c2nncn2c1)c1cccc(C(F)F)c1F [Example E81] | 0.258 | 15 | 93 | 25 | > 50 | 24 |
| C[C@@H](NC(=O)c1cc(C2=CCC(N3CCC[C@H](O)C3)CC2)c2nncn2c1)c1cccc(C(F)F)c1F (stereo partly drawn) [Example E82] | 0.09 | 5 | 92 | 20 | > 50 | 15 |
| Cc1nc2c([C@H]3CC[C@H](N4CCCC4)CC3)cc(C(=O)N[C@H](C)c3cccc(C(F)F)c3F)cn2n1 [Example E84] | 0.174 | 10 | 103 | 38 | > 50 | 37 |
| Cc1nc2c([C@H]3CC[C@H](N4CCC[C@H](O)C4)CC3)cc(C(=O)N[C@H](C)c3cccc(C(F)F)c3F)cn2n1 [Example E85] | 0.158 | 14 | 102 | 37 | > 50 | 24 |
| C[C@@H](NC(=O)c1cc(N2CCC3(CCCN3C)CC2)n2ncnc2c1)c1cccc(C(F)(F)F)c1F [Example E86] | 0.174 | 15 | 96 | 61 | > 50 | 44 |
| C[C@@H](NC(=O)c1cc(N2CCC(N3CCC(O)C(C)(O)C3)CC2)c2ncnn2c1)c1cccc(C(F)(F)F)c1F (stereo partly drawn) [Example cis-E29] | 0.261 | 24 | 95 | 56 | > 50 | 46 |
